According to ChEMBL document CHEMBL2331161, “Structure-guided design, synthesis and in vitro evaluation of a series of pyrazole-based fatty acid binding protein (FABP) 3 ligands” (Bioorg Med Chem Lett, 2013):

Assays:
[1] = target: Fatty acid-binding protein, adipocyte (Homo sapiens, UniProt P15090)
[2] = target: T1, Fatty acid-binding protein, heart (Homo sapiens, UniProt P05413)
Description: Inhibition of human FABP3 by 8-anilino-1-naphthalenesulfonic acid based fluorescence displacement assay

[3] = target: T1, Fatty acid-binding protein, heart; assay: Binding affinity to human FABP3 by surface plasmon resonance assay

T1 sequence (P05413 whole entry): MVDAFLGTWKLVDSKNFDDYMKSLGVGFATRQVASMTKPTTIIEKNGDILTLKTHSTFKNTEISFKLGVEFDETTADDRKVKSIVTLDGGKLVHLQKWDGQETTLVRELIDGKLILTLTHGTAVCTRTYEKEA
Chain of Fatty acid-binding protein, adipocyte (P15090 whole entry): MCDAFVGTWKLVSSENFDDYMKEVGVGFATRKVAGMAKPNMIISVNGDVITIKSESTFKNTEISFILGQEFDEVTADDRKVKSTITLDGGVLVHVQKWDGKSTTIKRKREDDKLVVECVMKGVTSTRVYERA

| IC50 ([1]; read-out: IC50) [µM] | IC50 [2] [µM] | Kd [3] [µM] | IC50 [1] | SMILES |
| --- | --- | --- | --- | --- |
| 0.987 | > 10000 |  |  | O=C(O)COc1cccc(-c2ccccc2-c2cc(-c3ccccc3)n(-c3ccccc3)n2)c1 |
| 259 | > 10000 |  |  | Cc1ccc(-c2cc(-c3ccccc3OCCCCC(=O)O)nn2-c2ccccc2)cc1 |
| 23.5 | 5.26 |  |  | O=C(O)CCCOc1ccccc1-c1cc(-c2ccccc2)n(C2CCCCC2)n1 |
| 15.5 | 6.47 |  |  | O=C(O)CCCOc1ccccc1-c1cc(-c2ccccc2)n(C2CCCCCC2)n1 |
| > 10000 | > 10000 |  |  | O=C(O)COc1ccccc1-c1cc(-c2ccc(Cl)cc2)n(-c2ccccc2)n1 |
| 6.13 | 21 |  |  | O=C(O)CCCOc1ccccc1-c1cc(-c2ccc(Cl)cc2)n(-c2ccccc2)n1 |
| 74 | 243 |  |  | O=C(O)CCCCOc1ccccc1-c1cc(-c2ccc(Cl)cc2)n(-c2ccccc2)n1 |
| 31 | > 10000 |  |  | O=C(O)CCCCCCOc1ccccc1-c1cc(-c2ccc(Cl)cc2)n(-c2ccccc2)n1 |
| 5.41 | 4730 |  |  | Cc1ccc(-c2cc(-c3ccccc3OCCCC(=O)O)nn2-c2ccccc2)cc1 |
| 9.51 | 224 |  |  | O=C(O)CCCOc1ccccc1-c1cc(-c2ccc(Br)cc2)n(-c2ccccc2)n1 |
| 3.02 | 2.01 | 16.3 |  | O=C(O)CCCOc1ccccc1-c1cc(-c2ccccc2)n(-c2ccccc2)n1 |
| 6.39 | > 10000 |  |  | O=C(O)CCCCOc1ccccc1-c1cc(-c2ccccc2)n(-c2ccccc2)n1 |
| 86 | 22.3 |  |  | O=C(O)CCCCOc1ccccc1-c1cc(-c2ccc(Br)cc2)n(-c2ccccc2)n1 |
|  | 1.14 | 5.26 |  | O=C(O)CCCOc1ccccc1-c1cc(-c2ccccc2)n(-c2ccc(F)cc2)n1 |
| 4.32 | 0.733 | 2.17 |  | O=C(O)CCCOc1ccccc1-c1cc(-c2ccccc2)n(-c2ccc(Cl)cc2)n1 |
| 10.3 |  |  |  | CC(C)c1ccc(-n2nc(-c3ccccc3OCCCC(=O)O)cc2-c2ccccc2)cc1 |
| 13.6 | 1.65 |  |  | COc1ccc(-n2nc(-c3ccccc3OCCCC(=O)O)cc2-c2ccccc2)cc1 |
| 4.27 | 1.16 |  |  | O=C(O)CCCOc1ccccc1-c1cc(-c2ccccc2)n(-c2ccccc2Cl)n1 |
|  | 505 |  | Not Active | COc1ccccc1-n1nc(-c2ccccc2OCCCC(=O)O)cc1-c1ccccc1 |
| 2.5 |  |  |  | O=C(O)CCCOc1ccccc1-c1cc(-c2ccccc2)n(-c2cccc(Cl)c2)n1 |
| 16.6 | 6.03 |  |  | O=C(O)CCCOc1ccccc1-c1cc(-c2ccccc2)n(C2CCCC2)n1 |
